Assay results taken from patent US20120189579A1 (priority 2009, published 2012).

target: T1, HCV NS5BΔ21/Gal4-DBD fusion protein (Hepatitis C virus genotype 1b, UniProt Q9WMX2); assay: 3D-SCREEN assay (NS5B reporter gene assay in Huh-7 cells); type: cell-based, HCV genotype 1b
T1 construct: The protein was expressed with a 21 amino acid C-terminal deletion to remove transmembrane domain; expressed in transfected cells; host or cells: Huh-7 (transient transfection)
Description: Human Hepatoma Huh-7 cell line was maintained in DMEM/HAMF-12 supplemented with 10% SVF, 4 mM glutamine, […] Na pyruvate, 1% penistreptomycine. HCV replicon containing Huh-7 cell lines Huh-9.13 and Luc Neo ET (Reblikon) were maintained in DMEM supplemented with 10% SVF, 2 mM glutamine, and 1×NEAA, 100 U/ml penicillin, and 100 μg/ml streptomycine. Replicon cells were maintained in medium supplemented with 1 mg/ml G418 for replicon Huh-9.13 and 0.5 mg/ml for Luc Neo et replicon unless indicated otherwise. Huh-7 and HCV replicon cell lines were maintained at 37° C. and 5% CO2 in a humidified atmosphere. Cells were dissociated at sub confluence with trypsin EDTA 1×.
cDNA encoding HCV NS5B genotype 1b, was cloned in frame with Gal4-DNA Binding Domain. The protein was expressed with a 21 amino acid C-terminal deletion to remove transmembrane domain. Expression of NS5BΔ21/Gal4 DBD fusion protein was under control of SV40 early promoter. 3D-Sensor peptide was cloned in frame with VP16 activation domain. Expression of 3D-Sensor/VP16 AD fusion protein was under control of CMV promoter. Expression of the firefly luciferase reporter gene was inducible by the [Target protein/conformation sensitive peptide/VP16AD] complex.
It is a single-target, cell based assay. Briefly, expression of a reporter gene depends on the interaction of a short peptide, thereafter named 3D-Sensor, and native conformation of the target protein. Whenever the conformation of the target protein is modified, interaction between 3D-sensor and target protein is disrupted and reporter gene is not expressed anymore. Conformation modifiers are identified by loss of expression of reporter gene. NS5B 3D-Screen platform was generated in Huh-7 cell lines by transient transfection of three expression vectors encoding respectively • (i) HCV NS5BΔ21/Gal4-DBD fusion protein • (ii) the 3D-sensor peptide 14/VP16 fusion protein • (iii) the firefly luciferase reporter gene
Huh-7 cells were dissociated the day before transfection and seeded in T175 flasks at a density of 10^7 cells in 30 ml culture medium. Equimolar ratios of vectors were transfected in cell according to optimized jetPEI transfection protocol (PolyPlus Transfection, Illkirch, France) and 10 μg total DNA/10^6 cells. Transfection was performed for 2 hours at 37° C. and 5% CO2 in a humidified atmosphere. After two hours cells were dissociated and seeded in 96 wells plates at a density of 25,000 cells per well and 90 μl culture medium. 10 μl of compounds to be tested were added 2 hours after seeding. Final concentration of DMSO was 1%. Cells were incubated in the presence of compounds for 24 hours after which expression of firefly luciferase reporter gene was quantified. Briefly, culture medium was removed and cells were lysed by addition of 100 μl of lysis buffer containing 125 mM Tris Phosphate ph 7.8, 10 mM EDTA, 5 mM DTT, 50% glycerol and 5% Triton. Plates were vortexed 10 min at 1300 rpm. Cell lysat was transferred in OpaqueWhite Assay 96 well Flat Bottom plates. 100 μl of luciferin solution 1× were added to each well. Luciferin solution contained 40 mM Tris Phosphate ph 7.8, 0.2 mM EDTA, 67 mM DTT, 2.14 mM MgCl2, 5.4 mM MgSO4, 4.7×10^−4 M luciferin, 5.3×10^−4 M ATP and 2.7×10^−4 M Acetyl co enzyme A. Luminescence was immediately measured with Berthold Microlumat Plus LB 96V luminometer with an integration of 0.5 sec. Inhibition was calculated using the formula: % inhibition=(1−(read/average max))*100. Average max=signal in absence of compound

Row | Structure (SMILES) | EC50 [µM]
1 | CC(C)c1ccc(C2C(C(=O)c3ccc(C(C)(C)C)cc3)=C(O)C(=O)N2c2ncc(S(=O)(=O)c3ccc([N+](=O)[O-])cc3)s2)cc1 (stereo not drawn) [Example 9, 4-(4-tert-butyl-benzoyl)-3-hydroxy-5-(4-isopropyl-phenyl)-1-[5-(4-nitro-benzenesulfonyl)-thiazol-2-yl]-1,5-dihydro-pyrrol-2-one] | 4
2 | CC(C)c1ccc(C2C(C(=O)Cc3ccccc3)=C(O)C(=O)N2c2ncc(S(=O)(=O)c3ccc([N+](=O)[O-])cc3)s2)cc1 (stereo not drawn) [Example 11, 3-hydroxy-5-(4-isopropyl-phenyl)-1-[5-(4-nitro-benzenesulfonyl)-thiazol-2-yl]-4-phenylacetyl-1,5-dihydro-pyrrol-2-one] | 12
3 | CC(C)c1ccc(C2C(C(=O)c3ccc(OC(F)(F)F)cc3)=C(O)C(=O)N2c2ncc(S(=O)(=O)c3ccc([N+](=O)[O-])cc3)s2)cc1 (stereo not drawn) [Example 13, 3-hydroxy-5-(4-isopropyl-phenyl)-1-[5-(4-nitro-benzenesulfonyl)-thiazol-2-yl]-4-(4-trifluoromethoxy-benzoyl)-1,5-dihydro-pyrrol-2-one] | 2
4 | COc1ccc(C(=O)C2=C(O)C(=O)N(c3nnc(C4CCCCC4)s3)C2c2ccc(C(C)(C)C)cc2)cc1 (stereo not drawn) [Example 27] | 12
5 | COc1ccc(C(=O)C2=C(O)C(=O)N(c3nnc(-c4ccccc4)s3)C2c2ccc(C(C)(C)C)cc2)cc1 (stereo not drawn) [Example 30, 5-(4-tert-butyl-phenyl)-3-hydroxy-4-(4-methoxy-benzoyl)-1-(5-phenyl-[1,3,4]thiadiazol-2-yl)-1,5-dihydro-pyrrol-2-one] | 6
6 | CC(C)c1ccc(C2C(C(=O)c3ccc(Cl)cc3)=C(O)C(=O)N2c2ncc(S(=O)(=O)c3ccc([N+](=O)[O-])cc3)s2)cc1 (stereo not drawn) [Example 32] | 2
7 | CC(C)c1ccc(C2C(Cc3ccccc3)=C(O)C(=O)N2c2ncc(S(=O)(=O)c3ccc([N+](=O)[O-])cc3)s2)cc1 (stereo not drawn) [Example 36, 4-benzyl-3-hydroxy-5-(4-isopropyl-phenyl)-1-[5-(4-nitro-benzenesulfonyl)-thiazol-2-yl]-1,5-dihydro-pyrrol-2-one] | 5
8 | COc1ccc(C2C(C(=O)c3ccc(Cl)cc3)=C(O)C(=O)N2c2ncc(S(=O)(=O)c3ccc([N+](=O)[O-])cc3)s2)cc1 (stereo not drawn) [Example 52] | 6
9 | COc1ccc(C2C(C(=O)c3ccc(C)cc3)=C(O)C(=O)N2c2ncc(S(=O)(=O)c3ccc([N+](=O)[O-])cc3)s2)cc1 (stereo not drawn) [Example 53] | 6
10 | CC(C)(C)c1ccc(C2C(C(=O)c3nccs3)=C(O)C(=O)N2c2ncc(S(=O)(=O)c3ccc([N+](=O)[O-])cc3)s2)cc1 (stereo not drawn) [Example 56, 5-(4-tert-butyl-phenyl)-3-hydroxy-1-[5-(4-nitro-benzenesulfonyl)-thiazol-2-yl]-4-(thiazol-2-carbonyl)-1,5-dihydro-pyrrol-2-one] | < 10
11 | O=C(C1=C(O)C(=O)N(c2ncc(S(=O)(=O)c3ccc([N+](=O)[O-])cc3)s2)C1c1cccc(Br)c1)c1ccc(Cl)cc1 (stereo not drawn) [Example 57] | 4
12 | O=C(C1=C(O)C(=O)N(c2ncc(S(=O)(=O)c3ccc([N+](=O)[O-])cc3)s2)C1c1cccc(Cl)c1)c1ccc(Cl)cc1 (stereo not drawn) [Example 59] | 14
13 | Cc1ccc(C(=O)C2=C(O)C(=O)N(c3ncc(S(=O)(=O)c4ccc([N+](=O)[O-])cc4)s3)C2c2ccc(Cl)cc2)cc1 (stereo not drawn) [Example 60] | 13
14 | COC(=O)c1sc(N2C(=O)C(O)=C(C(=O)c3ccc(Cl)cc3)C2c2ccc(C(C)(C)C)cc2)nc1C (stereo not drawn) [Example 62] | 20
15 | Cc1ccc(C2C(C(=O)c3ccc(Cl)cc3)=C(O)C(=O)N2c2ncc(S(=O)(=O)c3ccc([N+](=O)[O-])cc3)s2)cc1 (stereo not drawn) [Example 66] | 14
16 | Cc1ccc(C(=O)C2=C(O)C(=O)N(c3ncc(S(=O)(=O)c4ccc([N+](=O)[O-])cc4)s3)C2c2ccc(C)cc2)cc1 (stereo not drawn) [Example 124] | 7

tested on: not given; assay: not given

Row | Structure (SMILES) | melting point [°C]
17 | COc1ccc(C(=O)C2=C(O)C(=O)N(c3nnc(C)s3)C2c2ccc(C(=O)O)cc2)cc1 (stereo not drawn) | 281
18 | COc1ccc(C(=O)C2=C(O)C(=O)N(c3nnc(C)s3)C2c2ccc(C#N)cc2)cc1 (stereo not drawn) | 185
